Data taken from article PMC6940354, “Comparative Assessment of the New PDE7 Inhibitor – GRMS-55 and Lisofylline in Animal Models of Immune-Related Disorders: A PK/PD Modeling Approach” (Pharmaceutical Research, 2020).
Several values for one entry are separate records, joined by “and”; a condition that tells them apart may be missing. Identical values can stand only once.

Key:
hrPDE2A = target: T1, hrPDE2A (Homo sapiens, UniProt O00408); experiment: PDE-Glo Phosphodiesterase Assay, hrPDE2A; assay type: biochemical; conditions: cGMP substrate, read-out: IC50 PDE2A, Estimate (CV%)
T1 construct: purchased SignalChem, Richmond, Canada
T1 sequence (O00408 whole entry): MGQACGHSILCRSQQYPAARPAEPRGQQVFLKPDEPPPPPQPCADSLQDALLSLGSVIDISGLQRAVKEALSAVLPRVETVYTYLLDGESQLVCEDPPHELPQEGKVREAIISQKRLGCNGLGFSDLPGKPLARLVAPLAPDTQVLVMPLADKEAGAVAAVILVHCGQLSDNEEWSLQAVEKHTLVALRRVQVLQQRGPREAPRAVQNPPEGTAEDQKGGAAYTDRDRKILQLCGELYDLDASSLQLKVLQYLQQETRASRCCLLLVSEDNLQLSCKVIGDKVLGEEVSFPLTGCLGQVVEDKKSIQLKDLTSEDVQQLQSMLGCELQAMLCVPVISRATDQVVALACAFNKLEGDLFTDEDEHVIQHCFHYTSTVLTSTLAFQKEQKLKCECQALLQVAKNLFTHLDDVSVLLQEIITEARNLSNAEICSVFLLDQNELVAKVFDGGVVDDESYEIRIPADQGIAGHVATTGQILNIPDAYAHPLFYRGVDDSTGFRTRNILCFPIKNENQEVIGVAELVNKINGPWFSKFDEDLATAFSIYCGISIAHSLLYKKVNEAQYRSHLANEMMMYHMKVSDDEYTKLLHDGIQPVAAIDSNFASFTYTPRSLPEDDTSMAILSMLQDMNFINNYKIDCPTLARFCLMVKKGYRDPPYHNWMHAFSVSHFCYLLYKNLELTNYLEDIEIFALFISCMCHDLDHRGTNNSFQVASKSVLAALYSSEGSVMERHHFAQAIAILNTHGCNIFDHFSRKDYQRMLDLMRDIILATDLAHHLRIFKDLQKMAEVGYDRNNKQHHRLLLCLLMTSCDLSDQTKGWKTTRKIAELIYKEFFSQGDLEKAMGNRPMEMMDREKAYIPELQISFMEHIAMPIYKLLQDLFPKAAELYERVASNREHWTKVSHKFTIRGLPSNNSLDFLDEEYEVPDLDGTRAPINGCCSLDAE
Method: (§2) Inhibitory activity of the investigated and reference compounds against various subtypes of PDEs was analyzed using the PDE-Glo Phosphodiesterase Assay following the manufacturer’s instruction (Promega Corp., USA). […] The values of IC50, Imax, and γ parameters of the investigated and reference compounds were estimated using non-linear regression in Phoenix WinNonlin v. […] Each sample was performed in quadruplicate and the relative activity of each sample was calculated as E=sample activity/control activity·100% .
One and a half μL aliquots of PDE-Glo reaction buffer containing appropriate amounts of human recombinant PDE (hrPDE) 1B, 2A, 3A, 4B, 4D, 5A, 7A, or 10A (SignalChem, Richmond, Canada) were placed into separate wells of a 384-well plate (Thermo Scientific, USA). The investigated compounds were initially dissolved in DMSO and then a serial dilution with DMSO was performed. Each dilution was mixed with PDE-Glo reaction buffer at a ratio of 1:5 (v/v). Then, 1 μL of the solution containing a PDE inhibitor and 2.5 μL of the substrate solution were added to each well. cGMP was used as a substrate in the case of hrPDE2A and hrPDE5A, while cAMP for other types of hrPDEs. The samples were incubated for 10 min at 30°C. […] The luminescence of each sample was measured by a microplate reader POLARstar Omega (BMG LABTECH, Germany).

hrPDE4B = target: T2, hrPDE4B (Homo sapiens, UniProt Q07343); experiment: PDE-Glo Phosphodiesterase Assay, hrPDE4B; assay type: biochemical; conditions: for hrPDE4B inhibitory activity, times weaker than rolipram: ratio to the reference compound rolipram
T2 construct: purchased SignalChem, Richmond, Canada
T2 sequence (Q07343 whole entry): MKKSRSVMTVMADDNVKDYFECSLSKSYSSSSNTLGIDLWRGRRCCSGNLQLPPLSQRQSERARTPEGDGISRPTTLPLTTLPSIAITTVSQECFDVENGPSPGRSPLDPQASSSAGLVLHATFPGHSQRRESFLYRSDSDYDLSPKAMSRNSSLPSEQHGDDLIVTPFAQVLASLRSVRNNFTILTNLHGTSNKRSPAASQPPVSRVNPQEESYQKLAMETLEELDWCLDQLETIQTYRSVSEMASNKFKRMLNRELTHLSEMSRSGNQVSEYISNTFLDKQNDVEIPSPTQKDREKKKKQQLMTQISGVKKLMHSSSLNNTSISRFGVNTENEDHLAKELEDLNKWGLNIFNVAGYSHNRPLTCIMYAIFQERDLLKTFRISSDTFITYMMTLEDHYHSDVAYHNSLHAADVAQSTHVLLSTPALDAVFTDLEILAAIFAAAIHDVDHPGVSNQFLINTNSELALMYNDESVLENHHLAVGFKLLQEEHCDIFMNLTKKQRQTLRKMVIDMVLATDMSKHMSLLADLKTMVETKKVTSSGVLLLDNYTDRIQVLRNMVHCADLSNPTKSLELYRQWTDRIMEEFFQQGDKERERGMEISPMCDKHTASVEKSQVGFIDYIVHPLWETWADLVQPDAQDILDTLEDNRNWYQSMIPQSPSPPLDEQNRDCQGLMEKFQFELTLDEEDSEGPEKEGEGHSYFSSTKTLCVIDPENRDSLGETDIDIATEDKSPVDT
Method: as §2
One and a half μL aliquots of PDE-Glo reaction buffer containing appropriate amounts of human recombinant PDE (hrPDE) 1B, 2A, 3A, 4B, 4D, 5A, 7A, or 10A (SignalChem, Richmond, Canada) were placed into separate wells of a 384-well plate (Thermo Scientific, USA). The investigated compounds were initially dissolved in DMSO and then a serial dilution with DMSO was performed. Each dilution was mixed with PDE-Glo reaction buffer at a ratio of 1:5 (v/v). Then, 1 μL of the solution containing a PDE inhibitor and 2.5 μL of the substrate solution were added to each well. cGMP was used as a substrate in the case of hrPDE2A and hrPDE5A, while cAMP for other types of hrPDEs. The samples were incubated for 10 min at 30°C. Subsequently, 2.5 μL volumes of PDE-Glo Termination Buffer and PDE-Glo Detection Solution were added to each well and after 20 min of incubation at room temperature, 10 μL of Kinase-Glo Reagent was added to each well. The luminescence of each sample was measured by a microplate reader POLARstar Omega (BMG LABTECH, Germany).

[1] = system: TNF-α release from LPS-stimulated whole rat blood; experiment: Inhibition of LPS-induced TNF-α release in whole rat blood; assay type: cell-based
Method: Stimulation of whole rat blood by LPS was performed on 96-well plates. […] Contents of each well (200 μL) consisted of heparinized rat blood containing 10 U heparin mL^−1 diluted with RPMI-1640 medium at a ratio of 1:1 (v/v). All compounds were dissolved in DMSO and added to blood (the final DMSO concentration in blood was 0.5%) 15 min prior to the addition of LPS dissolved in RPMI-1640 medium to achieve the LPS concentration of 10 mg L^−1. Both, LPS and DMSO were also added to control wells at the same concentrations. Additional control samples (for testing baseline TNF-α levels in blood) consisted of DMSO (0.5%) without LPS. The incubation was performed at 37°C in a humidified atmosphere of 5% CO2 in an MCO-5 AC-PE incubator (PHCbi, Japan). After 6 h of incubation, the plates were centrifuged for 10 min using PlateFuge MicroCentrifuge (Benchmark Scientific, USA). The individual plasma samples were harvested and stored at −80°C until analysis.
(§1) TNF-α levels in LPS-stimulated rat blood in vitro and in rat plasma samples from the in vivo studies were analyzed by the Rat TNF-α Quantikine ELISA Immunoassay Kit (R&D Systems, USA) according to the manufacturer’s instructions. The assay was linear at the range of 12.5–800 pg mL^−1. Levels of TNF-α in mice serum were measured by ELISA Kits for Tumor Necrosis Factor Alpha (Cloud-Clone Corp., USA). This assay was linear at the range of 15.6–1000 pg mL^−1. Absorbance was measured at 450 nm using a POLARstar Omega multi-mode microplate reader (BMG LABTECH, Germany).

[2] = system: ConA-induced hepatitis in BALB/c mice; experiment: ConA-induced hepatitis in mice; assay type: in vivo, mouse; conditions: IP 30 min before ConA 20 mg kg^−1 IV, 8 h after ConA, rolipram 10 mg kg^−1, GRMS-55 and (±)-LSF 50 mg kg^−1, vs control group
Method: ConA was dissolved in an appropriate volume of saline for injections to obtain a concentration of 2 mg mL^−1. Each of the investigated compounds was dissolved in a vehicle composed of DMSO and PEG 400 mixed at a ratio of 1:9 (v/v). Thirty minutes before ConA administration, mice were injected intraperitoneally (IP) with the investigated compounds dissolved in the vehicle at a dose of 50 mg kg^−1 or with the corresponding volume of vehicle alone in the case of control group. ConA was administered by IV route at a dose of 20 mg kg^−1 and 8 h later mice were sacrificed. Blood samples were harvested from each individual and allowed to clot for 30 min at room temperature. Subsequently, serum was separated by centrifugation (3000 x g, 10 min), collected, and stored at −80°C until analysis.
as §1
Serum […] (AST) and alanine transaminase (ALT) activity was analyzed using the chemistry analyzer BS-800 (Shenzhen Mindray Bio-medical Electronics Co. ltd, China).

[3] = system: collagen-induced arthritis (CIA) in female Lewis rats; experiment: Body weight, clinical score and paw areas in CIA rats; assay type: in vivo, rat; conditions: CIA rats vs control group; rolipram at all assessments post 20th day, (±)-LSF at 26, 33, and 36 day
Method: At a day 0 of the experiment animals were subcutaneously (SC) injected at the base of the tail with 200 μL of the emulsion using a 27 gauge × 5/8″ needle and Hamilton syringe. At day 7 after the initial immunization, a booster injection with 100 μL of emulsion was performed. Ninety % of rats developed symptoms of disease (paw swelling >150% of day 0) at day 20 of the experiment. At this day, diseased animals were randomly divided into five groups (n = 6). […] One investigated group received (±)-LSF dissolved in saline at an SC dose of 80 mg kg^−1 once daily. The corresponding control groups were administered with appropriate volumes of vehicles IP or SC. At day 40 animals were sacrificed. Hind paws of rats were taken and immersed into 4% buffered formalin solution for a subsequent histological analysis. Blood samples were collected and allowed to clot for 20 min and then centrifuged at 2000 x g for 15 min. Serum samples were collected and frozen at -80°C.
Body weight and paw size were measured, and clinical score was assessed at days 0, 5, 7, 11, 15, 18, 20, 22, 26, 30, 33, and 36 after the first immunization. Body weight of each rat was normalized to the body weight of the same rat at the day of the first immunization. Disease progression was evaluated by a qualitative clinical score (CS) as described elsewhere (1), where 0 – no symptoms of the disease, such as redness or swelling, 1 – mild, but definite redness and swelling, 2 – moderate redness and swelling, 3 – severe redness and swelling, and 4 – maximally inflamed limbs.

[4] = LPS 10 mg L^−1, 6 h incubation, compared to LPS-treated control

Compound	IC50 (hrPDE2A) [µM]	IC50 (hrPDE4B; hrPDE4B, cAMP substrate, read-out: IC50 PDE4B, Estimate (CV%)) [µM]	hrPDE4B inhibitory activity, times weaker than rolipram (hrPDE4B) [times]	Reduction of TNF-α levels in LPS-stimulated whole rat blood (result in words) [1, 4]	TNF-α release in mice serum (result in words) [2]	activities of transaminases (ALT, AST) in mice sera (result in words) [2]	clinical score values (result in words) [3]	PDE4B inhibitory potency of GRMS-55 relative to (±)-LSF (hrPDE4B; GRMS-55 more potent than (±)-LSF in vitro)	Inhibition of TNF-α release in LPS-stimulated whole rat blood (result in words) ([1]; levels of 50 and 250 μM, compared to the control wells)	Reduction of TNF-α levels in LPS-stimulated whole rat blood (result in words) ([1]; concentration of 50 μM, compared to the control group)
CC(O)CCCCn1c(=O)c2c(ncn2C)n(C)c1=O (racemic) [(±)-LSF, lisofylline]	91.6	50.8	45	significantly and with similar potency reduced	significantly reducing TNF-α levels	failed to decrease the activities of transaminases	significantly lower	–	–	–
Cn1c(=O)c2c(nc(NCCc3ccccc3)n2CCCC(=O)NN=Cc2ccccc2O)n(C)c1=O [GRMS-55, 4-(1,3-Dimethyl-2,6-dioxo-8-(phenethylamino)-2,3,6,7-tetrahydro-1H-purin-7-yl)-N′-(2-hydroxybenzylidene)butanehydrazide]	> 100	–	24	did not exhibit activity	most potently inhibited TNF-α release	significantly reduced	did not decreased significantly	~ 2 times and ~ 2.0 times	failed to inhibit TNF-α release	–
COc1ccc(C2CNC(=O)C2)cc1OC1CCCC1 (stereo not shown) [Rolipram, rolipram]	–	–	–	–	most potently inhibited TNF-α release	significantly reduced	significantly lower	–	–	completely reduced
